Values of other authors as cited in patent US20020099506A1, “Methods and apparatus for predicting ligand binding interactions” (priority 2000, published 2002).
Entries after “also recorded” stand apart in the source; their conditions may differ.

Test system: histdyl t-RNA synthetase
Conditions: not given

Compound	recognition by the enzyme (experimental observations)
N[C@@H](Cc1c[nH]cn1)C(=O)O [histidine]	the only ligand recognized by this enzyme

Test system: olfactory receptor S25 (OR S25)
Conditions: data of Malnic et al.; 24 odorants of 4-9 carbon atoms

Compound	experimental odor response of S25
CCCCCCCO [heptanol]	responds positively; also recorded: elicited measurable responses
CCCCCCO [hexanol]	responds positively; also recorded: elicited measurable responses

Test system: olfactory receptor S18
Conditions: according to Malnic et al.

experimental response of S18	Compound
responds experimentally	CCCCCCCCCO [nonanol]
responds experimentally	CCCCCCCCC(=O)O [nonanoic acid]
responds experimentally	CCCCCCCCO [octanol]
responds experimentally	CCCCCCCC(=O)O [octanoic acid]
responds experimentally	CCCCCCC(=O)O [heptanoic acid]

Compound	experimental response of S18
O=C(O)CCCCCCCBr [8-bromo-octanoic acid]	responds experimentally
